Among the data in paper PMC4079120 (Journal of the American Chemical Society, 2013) are EC50 values, retold here.

Broadly, the EC50 is the concentration at which the effect is half-maximal. Read a low EC50 as greater potency.

This test concerns the target GABA-A receptor. Put plainly: block of evoked GABA-A receptor currents in layer […] pyramidal neurons.
RuBi-Glu had an EC50 of 7.7 µM.
Turning to DEAC450-Glu [compound 7], the EC50 is roughly 33 µM.
With `COc1ccc([N+](=O)[O-])c2c1CCN2C(=O)CC[C@H](N)C(=O)O` [MNI-Glu], the midpoint of the response, the EC50, lay at 105 µM.
